Experimental data: paper PMC8632988, “Inhibition of SYK and cSrc kinases can protect bone and cartilage in preclinical models of osteoarthritis and rheumatoid arthritis” (Scientific Reports, 2021)

How the values were obtained:
Experiment in all cases: Kinase selectivity profile assay
Type in all cases: biochemical
ALK3/BMPR1A = target: T1, ALK3/BMPR1A (Homo sapiens, UniProt P36894); details: 500 nM; relative to DMSO; read-out: Residual enzymatic activity
T1 construct: purchased Reaction Biology Corporation
Outline: (§1)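 Radiometric kinase assay run by a standard protocol. Unbound phosphate was removed by washing filters in phosphoric acid, and product radioactivity gave percent remaining kinase activity versus DMSO vehicle reactions. Run in duplicate.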

BRAF = target: T2, BRAF (Homo sapiens, UniProt P15056); details: 500 nM; relative to DMSO; read-out: Residual enzymatic activity
T2 construct: purchased Reaction Biology Corporation
Outline: as §1

BRSK2 = target: T3, BRSK2 (Homo sapiens, UniProt Q8IWQ3); details: 500 nM; relative to DMSO; read-out: Residual enzymatic activity
T3 construct: purchased Reaction Biology Corporation
T3 sequence (Q8IWQ3 whole entry): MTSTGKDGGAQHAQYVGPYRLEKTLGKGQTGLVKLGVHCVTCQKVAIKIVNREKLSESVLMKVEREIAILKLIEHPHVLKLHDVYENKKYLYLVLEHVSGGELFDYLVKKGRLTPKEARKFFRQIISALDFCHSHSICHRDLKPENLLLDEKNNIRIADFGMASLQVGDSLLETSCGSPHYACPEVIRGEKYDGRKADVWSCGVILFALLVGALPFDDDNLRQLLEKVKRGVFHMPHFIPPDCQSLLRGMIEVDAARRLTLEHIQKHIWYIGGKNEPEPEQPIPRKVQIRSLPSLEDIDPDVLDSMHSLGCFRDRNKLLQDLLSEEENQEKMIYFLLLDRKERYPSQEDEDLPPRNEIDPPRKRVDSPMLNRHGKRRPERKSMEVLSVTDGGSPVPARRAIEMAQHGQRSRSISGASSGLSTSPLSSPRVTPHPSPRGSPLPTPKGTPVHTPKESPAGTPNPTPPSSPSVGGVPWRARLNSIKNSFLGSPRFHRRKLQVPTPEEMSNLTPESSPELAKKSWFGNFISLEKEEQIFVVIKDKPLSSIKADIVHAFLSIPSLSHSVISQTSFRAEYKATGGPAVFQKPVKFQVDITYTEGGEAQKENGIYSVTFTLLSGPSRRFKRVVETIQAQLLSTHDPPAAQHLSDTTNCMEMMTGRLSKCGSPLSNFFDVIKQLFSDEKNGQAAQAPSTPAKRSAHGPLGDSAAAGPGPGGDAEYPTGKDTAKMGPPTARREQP
Outline: as §1

CAMK2b = target: T4, CAMK2b (Homo sapiens, UniProt Q13554); details: 500 nM; relative to DMSO; read-out: Residual enzymatic activity
T4 construct: purchased Reaction Biology Corporation
Outline: as §1

CDK5/p25 = target: T5, CDK5/p25 (Homo sapiens, UniProt Q00535); details: 500 nM; relative to DMSO; read-out: Residual enzymatic activity
T5 construct: purchased Reaction Biology Corporation
Outline: as §1

CDK6/cyclin D1 = target: T6, CDK6/cyclin D1 (Homo sapiens, UniProt Q00534); details: 500 nM; relative to DMSO; read-out: Residual enzymatic activity
T6 construct: purchased Reaction Biology Corporation
Outline: as §1

CDK6/cyclin D3 = target: T7, CDK6/cyclin D3 (Homo sapiens, UniProt Q00534); details: 500 nM; relative to DMSO; read-out: Residual enzymatic activity
T7 construct: purchased Reaction Biology Corporation
Outline: as §1

DDR1 = target: T8, DDR1 (Homo sapiens, UniProt Q08345); details: for remaining activity at 0.5 µM: 500 nM, relative to DMSO, read-out: Residual enzymatic activity
T8 construct: purchased Reaction Biology Corporation (assay service)
T8 sequence (Q08345 19-913): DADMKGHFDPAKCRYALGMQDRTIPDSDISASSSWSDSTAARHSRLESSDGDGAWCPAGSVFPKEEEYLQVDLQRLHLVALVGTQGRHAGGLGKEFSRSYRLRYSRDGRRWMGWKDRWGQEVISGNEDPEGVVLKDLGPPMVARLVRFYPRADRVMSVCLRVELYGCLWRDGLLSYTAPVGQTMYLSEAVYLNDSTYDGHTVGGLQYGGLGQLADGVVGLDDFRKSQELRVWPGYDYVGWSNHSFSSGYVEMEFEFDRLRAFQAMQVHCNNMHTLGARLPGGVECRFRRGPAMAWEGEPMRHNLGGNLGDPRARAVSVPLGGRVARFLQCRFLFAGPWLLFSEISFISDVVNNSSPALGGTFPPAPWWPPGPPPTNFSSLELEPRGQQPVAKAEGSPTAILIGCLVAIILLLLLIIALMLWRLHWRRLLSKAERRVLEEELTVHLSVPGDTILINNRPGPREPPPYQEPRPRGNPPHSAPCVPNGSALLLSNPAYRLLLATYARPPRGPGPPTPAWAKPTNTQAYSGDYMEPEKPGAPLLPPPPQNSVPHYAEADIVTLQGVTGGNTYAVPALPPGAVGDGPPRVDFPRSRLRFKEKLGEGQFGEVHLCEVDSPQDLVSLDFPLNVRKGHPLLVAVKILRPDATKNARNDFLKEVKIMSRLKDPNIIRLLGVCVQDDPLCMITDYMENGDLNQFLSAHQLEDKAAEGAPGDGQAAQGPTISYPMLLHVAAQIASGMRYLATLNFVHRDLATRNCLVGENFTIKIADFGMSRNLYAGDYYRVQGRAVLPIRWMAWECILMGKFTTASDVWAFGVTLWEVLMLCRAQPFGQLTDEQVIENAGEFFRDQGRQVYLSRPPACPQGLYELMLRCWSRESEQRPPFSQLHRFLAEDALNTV
Outline: as §1

DRAK1/STK17A = target: T9, DRAK1/STK17A (Homo sapiens, UniProt Q9UEE5); details: 500 nM; relative to DMSO; read-out: Residual enzymatic activity
T9 construct: purchased Reaction Biology Corporation
Outline: as §1

EPHA6 = target: T10, EPHA6 (Homo sapiens, UniProt Q9UF33); details: 500 nM, relative to DMSO; for remaining activity at 0.5 µM: read-out: Residual enzymatic activity
T10 construct: purchased Reaction Biology Corporation
T10 sequence (Q9UF33 23-1036): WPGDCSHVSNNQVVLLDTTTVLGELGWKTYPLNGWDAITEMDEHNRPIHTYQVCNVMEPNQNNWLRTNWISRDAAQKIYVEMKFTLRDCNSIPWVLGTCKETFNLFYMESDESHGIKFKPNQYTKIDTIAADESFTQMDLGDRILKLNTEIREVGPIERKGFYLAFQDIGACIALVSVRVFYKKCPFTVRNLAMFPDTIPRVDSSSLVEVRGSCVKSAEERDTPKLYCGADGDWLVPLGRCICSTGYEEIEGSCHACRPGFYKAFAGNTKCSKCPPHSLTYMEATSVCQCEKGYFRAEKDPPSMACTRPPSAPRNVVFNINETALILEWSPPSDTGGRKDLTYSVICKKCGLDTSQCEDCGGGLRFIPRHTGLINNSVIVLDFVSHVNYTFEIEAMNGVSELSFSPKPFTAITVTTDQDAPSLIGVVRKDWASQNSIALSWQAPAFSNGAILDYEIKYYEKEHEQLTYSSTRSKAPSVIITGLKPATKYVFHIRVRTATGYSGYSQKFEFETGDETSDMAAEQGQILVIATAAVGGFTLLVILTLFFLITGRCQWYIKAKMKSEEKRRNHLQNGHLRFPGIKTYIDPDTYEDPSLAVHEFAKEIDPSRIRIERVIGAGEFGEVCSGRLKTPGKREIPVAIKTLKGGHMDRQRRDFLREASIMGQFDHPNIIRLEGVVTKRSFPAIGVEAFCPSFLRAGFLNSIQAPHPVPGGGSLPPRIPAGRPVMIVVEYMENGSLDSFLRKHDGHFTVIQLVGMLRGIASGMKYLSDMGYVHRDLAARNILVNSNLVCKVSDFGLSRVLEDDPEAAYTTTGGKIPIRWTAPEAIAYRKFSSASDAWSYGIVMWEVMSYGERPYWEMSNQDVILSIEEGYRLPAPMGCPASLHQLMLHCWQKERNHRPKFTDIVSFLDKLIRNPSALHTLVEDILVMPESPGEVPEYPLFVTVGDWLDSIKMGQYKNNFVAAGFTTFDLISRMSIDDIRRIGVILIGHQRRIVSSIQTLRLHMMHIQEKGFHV
Outline: as §1

HIPK4 = target: T11, HIPK4 (Homo sapiens, UniProt Q8NE63); details: 500 nM; relative to DMSO; read-out: Residual enzymatic activity
T11 construct: purchased Reaction Biology Corporation
Outline: as §1

IKKb/IKBKB = target: T12, IKKb/IKBKB (Homo sapiens, UniProt O14920); details: 500 nM; relative to DMSO; read-out: Residual enzymatic activity
T12 construct: purchased Reaction Biology Corporation
Outline: as §1

LATS2 = target: T13, LATS2 (Homo sapiens, UniProt Q9NRM7); details: 500 nM; relative to DMSO; read-out: Residual enzymatic activity
T13 construct: purchased Reaction Biology Corporation
Outline: as §1

LYN B = target: T14, LYN B (Homo sapiens, UniProt P07948); details: for remaining activity at 0.5 µM: 500 nM, relative to DMSO, read-out: Residual enzymatic activity
T14 construct: purchased Reaction Biology Corporation (assay service)
T14 sequence (P07948 1-491 isoform P07948-2): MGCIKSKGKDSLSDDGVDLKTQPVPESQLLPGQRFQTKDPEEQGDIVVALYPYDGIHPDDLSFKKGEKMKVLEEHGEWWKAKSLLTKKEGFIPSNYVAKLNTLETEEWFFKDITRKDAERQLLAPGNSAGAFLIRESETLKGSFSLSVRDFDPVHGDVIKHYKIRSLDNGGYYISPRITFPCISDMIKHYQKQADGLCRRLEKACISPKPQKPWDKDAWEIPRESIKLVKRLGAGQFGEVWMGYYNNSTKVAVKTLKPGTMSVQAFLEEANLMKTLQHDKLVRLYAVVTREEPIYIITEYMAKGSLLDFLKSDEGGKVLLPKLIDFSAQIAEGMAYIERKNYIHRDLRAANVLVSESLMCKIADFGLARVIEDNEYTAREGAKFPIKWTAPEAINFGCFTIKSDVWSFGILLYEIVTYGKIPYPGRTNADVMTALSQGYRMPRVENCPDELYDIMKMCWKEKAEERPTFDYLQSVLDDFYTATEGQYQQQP
Outline: as §1

MKK4 = target: T15, MKK4 (Homo sapiens, UniProt P45985); details: 500 nM; relative to DMSO; read-out: Residual enzymatic activity
T15 construct: purchased Reaction Biology Corporation
T15 sequence (P45985 whole entry): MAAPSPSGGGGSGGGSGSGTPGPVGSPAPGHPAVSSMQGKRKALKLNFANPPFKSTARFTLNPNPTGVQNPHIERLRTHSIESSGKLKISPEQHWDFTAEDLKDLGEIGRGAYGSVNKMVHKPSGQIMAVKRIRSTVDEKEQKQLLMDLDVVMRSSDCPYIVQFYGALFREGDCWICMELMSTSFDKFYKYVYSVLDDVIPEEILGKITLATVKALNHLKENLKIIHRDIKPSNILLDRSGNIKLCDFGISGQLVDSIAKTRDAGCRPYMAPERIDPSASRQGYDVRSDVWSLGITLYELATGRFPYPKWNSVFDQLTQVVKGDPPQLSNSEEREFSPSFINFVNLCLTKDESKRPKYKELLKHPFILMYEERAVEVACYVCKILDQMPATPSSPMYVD
Outline: as §1

MKK6 = target: T16, MKK6 (Homo sapiens, UniProt P52564); details: 500 nM; relative to DMSO; read-out: Residual enzymatic activity
T16 construct: purchased Reaction Biology Corporation
Outline: as §1

MLK1/MAP3K9 = target: T17, MLK1/MAP3K9 (Homo sapiens, UniProt P80192); details: for remaining activity at 0.5 µM: 500 nM, relative to DMSO, read-out: Residual enzymatic activity
T17 construct: purchased Reaction Biology Corporation (assay service)
T17 sequence (P80192 whole entry): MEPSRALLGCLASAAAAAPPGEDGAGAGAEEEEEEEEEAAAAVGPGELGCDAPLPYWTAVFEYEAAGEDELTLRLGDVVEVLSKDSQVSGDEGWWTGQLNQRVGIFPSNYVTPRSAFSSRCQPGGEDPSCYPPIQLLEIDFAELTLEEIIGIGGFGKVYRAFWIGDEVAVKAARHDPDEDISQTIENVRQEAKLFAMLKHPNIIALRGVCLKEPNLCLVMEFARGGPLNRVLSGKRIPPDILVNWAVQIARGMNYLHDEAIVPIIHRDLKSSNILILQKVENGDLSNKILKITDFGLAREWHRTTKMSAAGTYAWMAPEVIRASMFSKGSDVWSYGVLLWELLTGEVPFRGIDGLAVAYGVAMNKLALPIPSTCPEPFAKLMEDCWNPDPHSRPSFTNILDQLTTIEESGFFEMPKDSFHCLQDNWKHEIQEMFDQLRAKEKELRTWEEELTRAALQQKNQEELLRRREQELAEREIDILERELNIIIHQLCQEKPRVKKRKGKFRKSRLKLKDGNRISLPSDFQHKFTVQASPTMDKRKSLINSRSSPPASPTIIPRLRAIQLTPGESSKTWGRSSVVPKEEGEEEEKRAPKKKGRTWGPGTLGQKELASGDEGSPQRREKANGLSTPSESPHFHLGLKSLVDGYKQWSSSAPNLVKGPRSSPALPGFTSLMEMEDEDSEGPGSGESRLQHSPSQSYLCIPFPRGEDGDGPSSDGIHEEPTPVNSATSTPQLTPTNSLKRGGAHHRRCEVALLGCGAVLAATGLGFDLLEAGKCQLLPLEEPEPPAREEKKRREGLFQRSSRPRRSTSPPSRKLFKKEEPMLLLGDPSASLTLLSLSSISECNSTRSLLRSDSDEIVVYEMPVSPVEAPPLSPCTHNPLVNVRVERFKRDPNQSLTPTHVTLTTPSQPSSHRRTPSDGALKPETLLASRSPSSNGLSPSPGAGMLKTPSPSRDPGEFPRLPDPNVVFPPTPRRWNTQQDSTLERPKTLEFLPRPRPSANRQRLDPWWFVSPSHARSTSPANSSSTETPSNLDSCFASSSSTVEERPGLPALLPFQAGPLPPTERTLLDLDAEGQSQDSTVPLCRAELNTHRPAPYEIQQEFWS
Outline: as §1

MLK2/MAP3K10 = target: T18, MLK2/MAP3K10 (Homo sapiens, UniProt Q02779); details: for remaining activity at 0.5 µM: 500 nM, relative to DMSO, read-out: Residual enzymatic activity
T18 construct: purchased Reaction Biology Corporation (assay service)
T18 sequence (Q02779 whole entry): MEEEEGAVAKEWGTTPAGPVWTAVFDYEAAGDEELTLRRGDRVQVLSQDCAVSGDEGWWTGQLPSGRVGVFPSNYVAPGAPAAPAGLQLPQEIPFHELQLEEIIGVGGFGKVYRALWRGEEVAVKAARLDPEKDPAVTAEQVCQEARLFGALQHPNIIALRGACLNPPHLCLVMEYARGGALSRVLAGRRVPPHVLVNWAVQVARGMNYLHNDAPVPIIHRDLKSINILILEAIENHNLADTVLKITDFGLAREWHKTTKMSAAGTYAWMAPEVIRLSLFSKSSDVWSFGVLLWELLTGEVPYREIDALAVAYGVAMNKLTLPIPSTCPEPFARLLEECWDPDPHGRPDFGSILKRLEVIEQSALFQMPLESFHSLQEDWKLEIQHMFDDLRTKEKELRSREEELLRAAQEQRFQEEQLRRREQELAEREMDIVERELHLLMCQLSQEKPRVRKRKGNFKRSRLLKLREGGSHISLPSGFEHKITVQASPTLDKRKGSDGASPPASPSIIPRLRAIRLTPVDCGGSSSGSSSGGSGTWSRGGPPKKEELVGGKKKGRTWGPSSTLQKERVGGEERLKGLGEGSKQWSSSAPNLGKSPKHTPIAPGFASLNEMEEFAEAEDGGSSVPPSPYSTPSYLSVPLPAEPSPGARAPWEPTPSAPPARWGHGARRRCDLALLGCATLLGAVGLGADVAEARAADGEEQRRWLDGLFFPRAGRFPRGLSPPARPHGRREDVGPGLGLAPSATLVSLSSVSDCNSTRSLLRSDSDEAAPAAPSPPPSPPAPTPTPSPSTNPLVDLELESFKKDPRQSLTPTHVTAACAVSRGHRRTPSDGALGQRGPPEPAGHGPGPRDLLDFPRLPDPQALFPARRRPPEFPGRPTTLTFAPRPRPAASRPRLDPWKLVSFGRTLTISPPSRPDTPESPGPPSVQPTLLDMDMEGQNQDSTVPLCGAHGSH
Outline: as §1

OSR1/OXSR1 = target: T19, OSR1/OXSR1 (Homo sapiens, UniProt O95747); details: 500 nM; relative to DMSO; read-out: Residual enzymatic activity
T19 construct: purchased Reaction Biology Corporation
Outline: as §1

PKCmu/PRKD1 = target: T20, PKCmu/PRKD1 (Homo sapiens, UniProt Q15139); details: 500 nM; relative to DMSO; read-out: Residual enzymatic activity
T20 construct: purchased Reaction Biology Corporation
Outline: as §1

PLK3 = target: T21, PLK3 (Homo sapiens, UniProt Q9H4B4); details: 500 nM; relative to DMSO; read-out: Residual enzymatic activity
T21 construct: purchased Reaction Biology Corporation
Outline: as §1

ROCK1 = target: T22, ROCK1 (Homo sapiens, UniProt Q13464); details: 500 nM; relative to DMSO; read-out: Residual enzymatic activity
T22 construct: purchased Reaction Biology Corporation
Outline: as §1

STK39/STLK3 = target: T23, STK39/STLK3 (Homo sapiens, UniProt Q9UEW8); details: 500 nM; relative to DMSO; read-out: Residual enzymatic activity
T23 construct: purchased Reaction Biology Corporation
Outline: as §1

TAK1 = target: T24, TAK1 (Homo sapiens, UniProt O43318); details: 500 nM; relative to DMSO; read-out: Residual enzymatic activity
T24 construct: purchased Reaction Biology Corporation
Outline: as §1

TYK2 = target: T25, TYK2 (Homo sapiens, UniProt P29597); details: 500 nM; relative to DMSO; read-out: Residual enzymatic activity
T25 construct: purchased Reaction Biology Corporation
Outline: as §1

VRK1 = target: T26, VRK1 (Homo sapiens, UniProt Q99986); details: 500 nM; relative to DMSO; read-out: Residual enzymatic activity
T26 construct: purchased Reaction Biology Corporation
T26 sequence (Q99986 whole entry): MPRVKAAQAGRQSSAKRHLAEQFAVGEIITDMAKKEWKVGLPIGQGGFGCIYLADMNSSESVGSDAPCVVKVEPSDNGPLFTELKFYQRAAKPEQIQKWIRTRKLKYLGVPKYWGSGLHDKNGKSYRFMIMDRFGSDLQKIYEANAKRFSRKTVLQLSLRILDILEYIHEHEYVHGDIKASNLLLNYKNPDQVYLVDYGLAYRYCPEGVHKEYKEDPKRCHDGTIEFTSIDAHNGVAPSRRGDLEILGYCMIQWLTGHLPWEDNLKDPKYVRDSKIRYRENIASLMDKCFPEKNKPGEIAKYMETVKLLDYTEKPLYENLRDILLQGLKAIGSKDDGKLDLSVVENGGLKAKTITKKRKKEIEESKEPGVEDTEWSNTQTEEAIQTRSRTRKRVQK
Outline: as §1

[1] = 10-dose mode, threefold serial dilution from 10 μM

COc1cc(Nc2ncnc(Nc3cc4c(cn3)NC(=O)C(C)(C)O4)n2)cc(OC)c1OC [MT-SYK-03]
remaining activity at 0.5 µM (ALK3/BMPR1A): 130%
remaining activity at 0.5 µM (BRAF): 86.7%
remaining activity at 0.5 µM (BRSK2): 92.5%
remaining activity at 0.5 µM (CAMK2b): 97.7%
remaining activity at 0.5 µM (CDK5/p25): 102%
remaining activity at 0.5 µM (CDK6/cyclin D1): 91.8%
remaining activity at 0.5 µM (CDK6/cyclin D3): 101%
remaining activity at 0.5 µM (DDR1): 4.7%
IC50 (DDR1; [1]): 1.8 nM
inhibition at 0.5 µM (DDR1; read-out: Inhibition at 500 nM): > 90%
remaining activity at 0.5 µM (DRAK1/STK17A): 93.6%
Residual enzymatic activity (EPHA6): 73.9%
remaining activity at 0.5 µM (EPHA6): > 54%
remaining activity at 0.5 µM (HIPK4): 112%
remaining activity at 0.5 µM (IKKb/IKBKB): 94%
remaining activity at 0.5 µM (LATS2): 85.3%
remaining activity at 0.5 µM (LYN B): 25.7%
IC50 (LYN B; [1]): 14.2 nM
remaining activity at 0.5 µM (MKK4): 99.8%
remaining activity at 0.5 µM (MKK6): 116%
remaining activity at 0.5 µM (MLK1/MAP3K9): 21.5%
IC50 (MLK1/MAP3K9; [1]): 7.8 nM
remaining activity at 0.5 µM (MLK2/MAP3K10): 7.5%
IC50 (MLK2/MAP3K10; [1]): 4.3 nM
inhibition at 0.5 µM (MLK2/MAP3K10; read-out: Inhibition at 500 nM): > 90%
remaining activity at 0.5 µM (OSR1/OXSR1): 98.2%
remaining activity at 0.5 µM (PKCmu/PRKD1): 98.5%
remaining activity at 0.5 µM (PLK3): 97.6%
remaining activity at 0.5 µM (ROCK1): 95.1%
remaining activity at 0.5 µM (STK39/STLK3): 107%
remaining activity at 0.5 µM (TAK1): 103%
remaining activity at 0.5 µM (TYK2): 71.2%
remaining activity at 0.5 µM (VRK1): 102%

COc1cc(Nc2ncc(F)c(Nc3ccc4c(n3)NC(=O)C(C)(C)O4)n2)cc(OC)c1OC [R406, reference compound]
remaining activity at 0.5 µM (ALK3/BMPR1A): 120%
remaining activity at 0.5 µM (BRAF): 95.9%
remaining activity at 0.5 µM (BRSK2): 84.2%
remaining activity at 0.5 µM (CAMK2b): 95.8%
remaining activity at 0.5 µM (CDK5/p25): 79.4%
remaining activity at 0.5 µM (CDK6/cyclin D1): 93.4%
remaining activity at 0.5 µM (CDK6/cyclin D3): 97.4%
remaining activity at 0.5 µM (DDR1): 1%
remaining activity at 0.5 µM (DRAK1/STK17A): 43.3%
remaining activity at 0.5 µM (EPHA6): 24.9%
remaining activity at 0.5 µM (HIPK4): 92.9%
remaining activity at 0.5 µM (IKKb/IKBKB): 53%
remaining activity at 0.5 µM (LATS2): 51.2%
remaining activity at 0.5 µM (LYN B): 14.5%
remaining activity at 0.5 µM (MKK4): 102%
remaining activity at 0.5 µM (MKK6): 112%
remaining activity at 0.5 µM (MLK1/MAP3K9): 6.3%
remaining activity at 0.5 µM (MLK2/MAP3K10): 1.1%
remaining activity at 0.5 µM (OSR1/OXSR1): 97.2%
remaining activity at 0.5 µM (PKCmu/PRKD1): 82.1%
remaining activity at 0.5 µM (PLK3): 53.1%
remaining activity at 0.5 µM (ROCK1): 87%
remaining activity at 0.5 µM (STK39/STLK3): 107%
remaining activity at 0.5 µM (TAK1): 48.3%
remaining activity at 0.5 µM (TYK2): 10.5%
remaining activity at 0.5 µM (VRK1): 98.8%
